The record followed here is publication PMC12084297, “Cytoplasmic connexin43-microtubule interactions promote glioblastoma stem-like cell maintenance and tumorigenicity” (Cell Death & Disease, 2025).

What all share (format): cell-based, human
Assay [1] has as its system Cx43. Briefly: Cx43 expression in co-IP input, immunoblot, VTC-037 GSCs. As to conditions: 50 μM, 24 h. The method, then: (§1) Cells were lysed in RIPA buffer (0.1% sodium dodecyl sulphate, 50 mM Tris pH 7.4, 150 mM NaCl, 1 mM EDTA, 1% Triton X-100, 1% deoxycholic acid, 200 μM Na3VO4, and 1 mM NaF) supplemented with Halt^TM Protease and Phosphatase Inhibitor Cocktail (Thermo Fisher). Lysates were sonicated prior to centrifugation at 4 °C for 20 min at 10,000 x g. Protein concentration was quantified using the DC protein assay (Bio-Rad Laboratories) and a standard curve obtained with increasing concentrations of Bovine Serum Albumin (BSA; Fisher Scientific). Protein samples were normalized to 20 μg total protein per lane and resolved by SDS-PAGE electrophoresis. 4X Bolt LDS sample buffer supplemented with 400 mM DTT (final concentration 1X Bolt LDS with 100 mM DTT) was added to samples before heating at 70 °C for 10 min. […] Membranes were imaged on a ChemiDoc™ imaging system, and analyzed with Image Lab software (Bio-Rad Laboratories). […]
Prior to lysis, cross-linking was completed by incubating cells in DTBP (dimethyl 3,3’-dithiobispropionimidate; 2 mM in PBS) for 30 min at 37 °C followed by a glycine quench (100 mM glycine in PBS) for 15 min at room temperature. […] Protein concentration was quantified using the DC protein assay and a standard curve obtained with increasing concentrations of BSA, and 500 μg of total protein was used per reaction for co-IP. […]
Background: A western blot detects proteins with antibodies after separation by electrophoresis.

For assay [2], the system named is VTC-034 GSCs. Briefly: MTS viability, VTC-034 GSCs. As to conditions: VTC-034 adherent GSCs, 10, 50 or 100 μM, 4 days. The method, then:
Cells were plated in 96-well plates (2000–5000 cells per well) and treated the following day with TMZ (10, 50, or 100 μM), antennapedia, JM2-scrambled, or JM2 (10, 50, or 100 μM). After 4 days, cell viability was monitored following addition of MTS reagent (Promega) according to manufacturer’s instructions. The absorbance at 490 nm was measured using a SpectraMax i3 or iD3 microplate reader (Molecular Devices). For the caspase 3/7 activity assay, cells were plated in 96-well plates (2000 cells per well) and treated with TMZ or peptides as described above. The activity of caspase 3/7 was measured after 48 h using the Caspase-Glo® 3/7 assay (Promega) following the manufacturer’s instructions. Fold change of caspase 3/7 activity was defined as the ratio of caspase 3/7 luminescence in treated cells compared to controls.

Assay [3] concerns VTC-034 GSCs. Briefly: Gliosphere formation assay, VTC-034 GSCs. The settings on record: VTC-034, 10, 50 or 100 μM every other day, 2 weeks. The method, then:
GSCs and PDX GBM22 cells were plated as single cell suspension in low-attachment 96-well plates (GSCs: 100–500 cells per well; GBM22 cells: 500–2000 cells per well), using methods similar to those reported previously. Cells were then treated with peptides every other day. 2 weeks later, gliospheres were observed using phase contrast microscopy on a Revolve microscope (Echo Laboratories). The number of gliospheres was then determined, while the gliosphere size was assessed by diameter measurement. To evaluate stem cell frequency in GSCs, gliosphere formation assay was performed with limiting cell dilutions with cells plated at varying densities in low-attachment 96-well plates. Cells were treated with peptides every other day, and after 2 weeks, gliosphere-positive wells were observed and scored using phase contrast microscopy on a Revolve microscope. The stem cell frequency was analyzed using the online data analysis program ELDA (Extreme Limiting Dilution Analysis).

In assay [4] the test system is Cx43. Briefly: Cx43 protein expression, immunoblot, VTC-001 GSCs. As to conditions: 50 μM, 24 h. As for the experimental part:
as §1, with “min. SDS-PAGE was run using NuPAGE Bis-Tris 4%–12% gradient gels (Thermo Fisher) with MES or MOPS running buffer according to manufacturer’s instructions. Spectra™ Multicolor Protein Ladder (Thermo Fisher) or Precision Plus Protein™ Kaleidoscope™ Prestained Protein Standards (Bio-Rad Laboratories) were included as protein ladders on the same gels.” for “min.”

Turning to VFFKGVKDRVKGRSD [JM2], the “Cx43 expression (co-IP input)” value with Cx43 [1] is given as “does not affect Cx43 expression in GSCs”. The “GSC survival (MTS)” value with VTC-034 GSCs [2] is “significantly decreased VTC-001, VTC-034, and VTC-037 GSC survival when cultured as adherent cells in a dose-dependent manner”. In addition, the GSC-dependent gliosphere formation result in the assay on VTC-034 GSCs [3] is “inhibits VTC-001, VTC-034, and VTC-037 GSC-dependent gliosphere formation in a dose-dependent manner”. Also, the “Gliosphere size (diameter)” value with VTC-034 GSCs [3] (n = 4) is recorded as “significant decrease in gliosphere size”. For the same sequence, the Gliosphere number entry in the assay on VTC-034 GSCs [3] (n = 6) was “significant decrease in gliosphere size as assessed by diameter measurement (Fig. 6B), and number”. In the assay on Cx43 [4], the Cx43 protein expression entry is “without affecting Cx43 expression”.
